What is called pEC50 is the negative decadic logarithm of the EC50, by convention in mol/L.

Nine molecules from US9102648B1, “Bioavailable diacylhydrazine ligands for modulating the expression of exogenous genes via an ecdysone receptor complex” (Intrexon Corporation, priority 2003, dated 2015) can be followed below.

pEC50: −log10 of the molar value.

Data set [1] concerns the target GAL4 DBD (1-147)-CfEcR(DEF)/VP16AD-βRXREF-LmUSPEF (Choristoneura fumiferana, UniProt O77240). The data set can be described thus: cell-based. Particulars: for Fold Induction, 27-63 Assay, 3.3 uM: 3.3 uM ligand; for Fold Induction, 27-63 Assay, 3.3 uM / Fold Induction, 27-63 Assay, 33 uM: RLU ligand treated / RLU DMSO treated cells; for Fold Induction, 27-63 Assay, 3.3 uM / Fold Induction, 27-63 Assay, 33 uM / pEC50: average of two wells; for Fold Induction, 27-63 Assay, 33 uM: 33 uM ligand; for 27-63 assay Rel Max FI: maximum fold induction at any concentration relative to that of GS-E ligand, CHO 27-63 cells; for pEC50: read-out: 27-63 assay EC50, CHO 27-63 stable cell line, luciferase reporter. Background: In a reporter assay the amount or activity of a reporter protein is the signal.

Data set [2] concerns mutated ecdysone receptor-based gene switch. Put plainly: In vivo SEAP induction, ligand by IP injection. Further details: species or system C57BL/6 mouse. Particulars: mouse serum. The essentials: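 Gene switch plasmids (receptor under CMV promoter) electroporated into quadriceps of C57BL/6 mice; 3 days later ligand given IP at 2.6 μmol or 26 nmol in 50 μL DMSO per mouse. Serum SEAP measured by chemiluminescence 2-11 days after dosing, averaged over four animals, expressed as % of GS™-E ligand induction.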

On to `CCc1ccc(C(=O)NN(C(=O)c2cc(C)cc(C)c2)C(C)C(C)(C)C)cc1` (stereo not drawn) [RG-103451], for which, in data set [1], the “Fold Induction, 27-63 Assay, 3.3 uM” value was 3326; the “Fold Induction, 27-63 Assay, 33 uM” value is reported as 3865; the “27-63 assay Rel Max FI” value is 0.884; the pEC50 is 6.50. In addition, the “Secreted Alkaline Phosphatase (percentage of GS ™-E ligand induction) Day 2” value in data set [2] (IP 2.6 μmol ligand 3 days after electroporation, day 2 after ligand) is 76 percentage of GS ™-E ligand induction. Besides, in data set [2] (IP 2.6 μmol ligand, day 3 after ligand), the “Secreted Alkaline Phosphatase (percentage of GS ™-E ligand induction) Day 3” value is 73 percentage of GS ™-E ligand induction. The “Secreted Alkaline Phosphatase (percentage of GS ™-E ligand induction) Day 11” value in data set [2] (IP 2.6 μmol ligand, day 11 after ligand) is recorded as 371 percentage of GS ™-E ligand induction.

With `Cc1cc(C)cc(C(=O)N(NC(=O)c2cc3c(cc2C)OCO3)C(C)(C)C)c1` [RG-101088], in data set [1], the “Fold Induction, 27-63 Assay, 3.3 uM” value is 6; the “Fold Induction, 27-63 Assay, 33 uM” value is 1743; the “27-63 assay Rel Max FI” value came to 1.159; the pEC50 is 5.00.

Consider `COc1cc(C(=O)N(NC(=O)c2cccc(OC)c2C)C(C)(C)C)ccc1C` [RG-100768], for which, in data set [1], the “Fold Induction, 27-63 Assay, 3.3 uM” value is 1738; the “Fold Induction, 27-63 Assay, 33 uM” value is given as 1852; the “27-63 assay Rel Max FI” value is 1.039; the pEC50 is 6.48.

For the molecule `Cc1cc(C)cc(C(=O)N(NC(=O)c2ccc3c(c2)OC(C)O3)C(C)(C)C)c1` (stereo not drawn) [RG-101511], in data set [1], the “Fold Induction, 27-63 Assay, 3.3 uM” value was 1421; the “Fold Induction, 27-63 Assay, 33 uM” value is 1207; the “27-63 assay Rel Max FI” value was determined as 0.762; the pEC50 was 6.15.

With `COc1cccc(C(=O)NN(C(=O)c2cccnc2Cl)C(C)(C)C)c1C` [RG-100127], in data set [1], the “Fold Induction, 27-63 Assay, 3.3 uM” value is 49; the “Fold Induction, 27-63 Assay, 33 uM” value is 1239; the “27-63 assay Rel Max FI” value came to 0.689; the negative-log EC50 (pEC50) was 5.17.

In the case of `COc1ccc(C(=O)NN(C(=O)c2ccc(F)cc2Cl)C(C)(C)C)cc1` [RG-101057], in data set [1], the “Fold Induction, 27-63 Assay, 3.3 uM” value is 30; the “Fold Induction, 27-63 Assay, 33 uM” value came to 1008; the “27-63 assay Rel Max FI” value worked out at 0.648; the pEC50 was 5.18.

For `Cc1cc(C)cc(C(=O)N(NC(=O)c2ccc3c(c2)COCO3)C(C)(C)C)c1` [RG-101016], in data set [1], the “Fold Induction, 27-63 Assay, 3.3 uM” value turned out to be 308; the “Fold Induction, 27-63 Assay, 33 uM” value is reported as 1347; the “27-63 assay Rel Max FI” value was determined as 0.703; the pEC50 is 5.38.

As to `COc1cc(C(=O)NN(C(=O)c2cc(C)cc(C)c2)C(C)(C)C)ccc1C` [RG-101585], in data set [1], the “Fold Induction, 27-63 Assay, 3.3 uM” value came to 154; the “Fold Induction, 27-63 Assay, 33 uM” value stood at 1495; the “27-63 assay Rel Max FI” value amounted to 0.893; the pEC50 was 5.30.

As for `COc1ccccc1C(=O)N(NC(=O)c1ccc2c(c1C)OCOC2)C(C)(C)C` [RG-100216], in data set [1], the “Fold Induction, 27-63 Assay, 3.3 uM” value is listed as 53; the “Fold Induction, 27-63 Assay, 33 uM” value is 1312; the “27-63 assay Rel Max FI” value is on record as 0.685; the pEC50 is 5.16.
